This note sets out measurements from patent US12180226B2, “Spirotricycle RIPK1 inhibitors and methods of uses thereof” (Merck Sharp & Dohme LLC, priority 2021, dated 2024).

The assay concerns the target RIPK1 (recombinant GST-RIPK1 kinase domain, residues 1-327) (Homo sapiens (Human), UniProt Q13546). The assay is described as follows: RIPK1-ADP-Glo Enzymatic Assay. The class given is biochemical. The note with it: ADP-Glo; 25 nM GST-RIPK1, 300 μM ATP; assay lower limit ~25 nM; read-out: RIPK1 V0 Ec50. In short, it runs like this:
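Luminescent ADP-Glo readout of ATP-to-ADP conversion. Conditions: 25 nM enzyme, 300 μM ATP, 3 μM dephospho-MBP, pH 7.3 HEPES buffer with 20 mM MgCl2; 30 min compound pre-incubation, 150 min reaction. EC50 via four-parameter sigmoidal regression; assay floor ~25 nM.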
A general note: ADP-Glo turns the ADP formed in a reaction into a luminescent signal.

Counter-ions that a name gives are not always drawn. Some results are limits rather than exact numbers.

RIPK1 (recombinant GST-RIPK1 kinase domain, residues 1-327), sequence (Q13546 1-327): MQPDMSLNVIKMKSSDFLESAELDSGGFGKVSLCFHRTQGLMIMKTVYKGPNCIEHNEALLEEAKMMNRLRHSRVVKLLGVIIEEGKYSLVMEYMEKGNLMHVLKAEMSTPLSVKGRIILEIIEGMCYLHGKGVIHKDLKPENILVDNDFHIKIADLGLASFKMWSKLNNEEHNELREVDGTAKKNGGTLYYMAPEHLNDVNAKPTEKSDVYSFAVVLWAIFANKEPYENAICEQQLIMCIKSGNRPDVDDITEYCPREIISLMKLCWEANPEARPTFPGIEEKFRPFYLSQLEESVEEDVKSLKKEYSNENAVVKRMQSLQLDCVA

Regarding `Cc1c(Cl)ncnc1N1CCC2(CC1)O[C@@H]1CC[C@@H](c3ccccc3)N1C2=O` [Example 4.30, (5′S,7a′R)-1-(6-chloro-5-methylpyrimidin-4-yl)-5′-phenyltetrahydro-3′H-spiro[piperidine-4,2′-pyrrolo[2,1-b] [1,3]oxazol]-3′-one], the EC50 (as a rule, the concentration needed to bring the measured effect to its halfway point) is under 25 nM.
`Cc1nc(N2CCC3(CC2)O[C@@H]2CC[C@@H](c4ccccc4F)N2C3=O)ccc1C#N` [Example 4.105, 6-((5′S,7a′R)-5′-(2-fluorophenyl)-3′-oxotetrahydro-3′H-spiro[piperidine-4,2′-pyrrolo[2,1-b]oxazol]-1-yl)-2-methylnicotinonitrile]: the EC50 was under 25 nM.
Under `CC1CC2(CCN1C(=O)c1ccccc1)O[C@@H]1CC[C@@H](c3cc(F)cc(F)c3)N1C2=O` (stereo partly drawn) [Example 6.106, (4R,5′S,7a′R)-1-(benzenecarbonyl)-5′-(3,5-difluorophenyl)-2-methyltetrahydro-3′H-spiro[piperidine-4,2′-pyrrolo[2,1-b] [1,3]oxazol]-3′-one] stands 202 nM; under `O=C1N2[C@@H](CC[C@H]2c2cc(F)cc(F)c2)OC12CCN(c1nccc3nccn13)CC2` [Example 4.82, (5′S,7a′R)-5′-(3,5-difluorophenyl)-1-(imidazo[1,2-c]pyrimidin-5-yl)tetrahydro-3′H-spiro[piperidine-4,2′-pyrrolo[2,1-b]oxazol]-3′-one, TFA salt], 25 nM.
Under `O=C(c1ccoc1)N1CCC2(CC1)O[C@@H]1CC[C@@H](c3cccc(F)c3)N1C2=O` [Example 6.125, (5′S,7a′R)-5′-(3-fluoro-phenyl)-1-(furan-3-carbonyl)tetrahydro-3′H-spiro[piperidine-4,2′-pyrrolo[2,1-b] [1,3]oxazol]-3′-one] stands under 25 nM; under `COCCN1Cc2nc(N3CCC4(CC3)O[C@@H]3CC[C@@H](c5ccccc5)N3C4=O)ccc2C1=O` [Example 4.191, (5′S,7a′R)-1-[6-(2-methoxyethyl)-5-oxo-6,7-dihydro-5H-pyrrolo[3,4-b]pyridin-2-yl]-5′-phenyltetrahydro-3′H-spiro[piperidine-4,2′-pyrrolo[2,1-b] [1,3]oxazol]-3′-one], 53 nM; under `COc1cc(N2CCC3(CC2)O[C@@H]2CC[C@@H](c4ccccc4)N2C3=O)ncn1` [Example 4.39, (5′S,7a′R)-1-(6-methoxypyrimidin-4-yl)-5′-phenyltetrahydro-3′H-spiro[piperidine-4,2′-pyrrolo[2,1-b] [1,3]oxazol]-3′-one], 22.3 nM.
Under `Cc1nnc(N2CC3(C2)O[C@@H]2CC[C@@H](c4ccccc4F)N2C3=O)o1` [Example 4.273, (5′S,7a′R)-5′-(2-fluorophenyl)-1-(5-methyl-1,3,4-oxadiazol-2-yl)tetrahydro-3′H-spiro[azetidine-3,2′-pyrrolo[2,1-b] [1,3]oxazol]-3′-one] stands 566 nM; under `N#Cc1cccnc1C(=O)N1CCC2(CC1)O[C@@H]1CC[C@@H](c3cc(F)cc(F)c3)N1C2=O` [Example 6.103, 2-[(5′S,7a′R)-5′-(3,5-difluorophenyl)-3 oxotetrahydro-1H,3′H-spiro[piperidine-4,2′-pyrrolo[2,1-b][1,3]-oxazole]-1-carbonyl]-pyridine-3-carbonitrile], 934 nM.
With `O=C1N2[C@@H](CC[C@H]2c2ccccc2)OC12CCN(c1ccc(OC3CCC3)nn1)CC2` [Example 11.9, (5′S,7a′R)-1-[6-(cyclobutyloxy)pyridazin-3-yl]-5′-phenyltetrahydro-3′H-spiro[piperidine-4,2′-pyrrolo[2,1-b][1,3]oxazol]-3′-one], the concentration giving a half-maximal response (EC50) is 907 nM.
For the compound `O=C(c1cccc(C2CC2)c1)N1CCC2(CC1)O[C@@H]1CC[C@@H](c3cccc(F)c3)N1C2=O` [Example 6.118, (5′S,7a′R)-1-(3-cyclopropylbenzene-1-carbonyl)-5′-(3-fluorophenyl)tetra-hydro-3′H-spiro [piperidine-4,2′-pyrrolo[2,1-b][1,3]oxazol]-3′-one], the EC50 was under 25 nM.
For the compound `C[C@@]12CC[C@@H](c3ccccc3)N1C(=O)C1(CCN(c3ccnc4c(F)cnn34)CC1)O2` [Example 4.81, (5′S,7a′R)-1-(3-fluoropyrazolo[1,5-a]pyrimidin-7-yl)-7a′-methyl-5′-phenyltetrahydro-3′H-spiro[piperidine-4,2′-pyrrolo[2,1-b] [1,3]oxazol]-3′-one], the EC50 came out at 51.2 nM.
For `COc1nc(N2CCC3(CC2)O[C@@H]2CC[C@@H](c4cc(F)cc(F)c4)N2C3=O)ncc1C` [Example 4.59, (5′S,7a′R)-5′-(3,5-difluorophenyl)-1-(4-methoxy-5-methylpyrimidin-2-yl)tetrahydro-3′H-spiro[piperidine-4,2′-pyrrolo[2,1-b] [1,3]oxazol]-3′-one], the EC50 worked out at 149 nM.
Regarding `O=C1N2[C@@H](CC[C@H]2c2cc(F)cc(F)c2)OC12CN(c1cccc3ncnn13)C2` [Example 4.135, (5′S,7a′R)-5′-(3,5-difluorophenyl)-1-([1,2,4]triazolo[1,5-a]pyridin-5-yl)tetrahydro-3′H-spiro[azetidine-3,2′-pyrrolo[2,1-b] [1,3]oxazol]-3′-one], the concentration giving a half-maximal response (EC50) was determined as 63.7 nM.
Under `CC1CN(C(=O)c2ccccc2)CCC12O[C@@H]1CC[C@@H](c3cc(F)cc(F)c3)N1C2=O` (single isomer, unassigned) [Example 2.7, (3[R or S],4[S or R], 5′S,7a′R)-1-benzoyl-5′-(3,5-difluorophenyl)-3-methyltetrahydro-3′H-spiro[piperidine-4,2′-pyrrolo[2,1-b]oxazol]-3′-one] stands 43.1 nM; under `N#Cc1ccc(C(=O)N2CCC3(CC2)O[C@@H]2CC[C@@H](c4ccccc4)N2C3=O)cc1` [Example 6.151, 4-[(5′S,7a′R)-3′-oxo-5′-phenyltetrahydro-1H,3′H-spiro[piperi-dine-4,2′-pyrrolo[2,1-b][1,3]oxazole]-1-carbonyl]benzonitrile], 349 nM.
Under `O=C(c1sccc1Cl)N1CCC2(CC1)O[C@@H]1CC[C@@H](c3cc(F)cc(F)c3)N1C2=O` [Example 5.31, (5′S,7a′R)-1-(3-chloro-thiophene-2-carbonyl)-5′-(3,5-difluorophenyl)tetra-hydro-3′H-spiro[piperi-dine-4,2′-pyrrolo[2,1-b]oxazol]-3′-one] stands under 25 nM; under `Cc1nc(N2CCC3(CC2)O[C@@H]2CC[C@@H](c4ccccc4)N2C3=O)ncc1-c1ncco1` [Example 21.11, (5′S,7a′R)-1-[4-methyl-5-(1,3-oxazol-2-yl)pyrimidin-2-yl]-5′-phenyltetrahydro-3′H-spiro[piperidine-4,2′-pyrrolo[2,1-b][1,3]oxazol]-3′-one], under 25 nM; under `N#Cc1cc([C@@H]2CC[C@H]3OC4(CCN(C(=O)c5ccccc5)CC4)C(=O)N32)ccc1F` [Example 17.4, 5-((5′S,7a′R)-1-benzoyl-3′-oxotetrahydro-3′H-spiro[piperidine-4,2′-pyrrolo[2,1-b]oxazol]-5′-yl)-2-fluorobenzonitrile], 196 nM.
In the case of `O=C(c1cc(Cl)ccc1F)N1CCC2(CC1)O[C@@H]1CC[C@@H](c3cc(F)cc(F)c3)N1C2=O` [Example 5.61, (5′S,7a′R)-1-(5-chloro-2-fluorobenzoyl)-5′-(3,5-difluorophenyl)tetrahydro-3′H-spiro[piperidine-4,2′-pyrrolo[2,1-b]oxazol]-3′-one], the EC50 was under 25 nM.
